Where only a bound is given, the exact number is not on record here.

One series deals with T1, KLK8 (Homo sapiens, UniProt O60259).
T1 sequence (O60259 33-260): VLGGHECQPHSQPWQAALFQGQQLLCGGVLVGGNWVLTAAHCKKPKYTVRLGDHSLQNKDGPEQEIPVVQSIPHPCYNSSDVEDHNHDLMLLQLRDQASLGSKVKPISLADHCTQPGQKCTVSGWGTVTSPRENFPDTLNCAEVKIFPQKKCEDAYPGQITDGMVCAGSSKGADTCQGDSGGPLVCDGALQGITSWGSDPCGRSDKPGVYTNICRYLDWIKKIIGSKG
As to the kind of experiment: in vitro serine protease inhibition profile: KLK8. It counts as biochemical.

The subject of another series is post-colitis rats. In words: post-colitis rat model for visceral pain, visceromotor response (VMR) to colorectal distension. To be noted: for effect on VMRs (visceral pain) / effective dose in visceral pain model: post-colitis rats; for effective dose in visceral pain model: i.p. As to the method:
Male Sprague-Dawley rats (200-225 g; Charles River, Italy) were used in all experiments. Rats were housed at a constant room temperature (22±2° C.) and humidity (60%). The animals had unlimited access to water and food and were kept on a 12 h:12 h day-night cycle. They were allowed to acclimatize for at least 1 week before the start of the experiments.
In this set-up, a mild colitis was induced in the post-colitis group on day 0, using a TNBS-enema. The control group received an intrarectal administration with 0.9% NaCl. The presence of colitis was verified by a colonoscopy on day 3. From day 10 onwards, a colonoscopy was performed every 4 days to follow-up the healing of the colonic mucosa. When the colonic mucosa was completely healed, further experiments were performed 3 days later. […] After the VMR measurement, the animals were sacrificed.
TNBS-colitis was induced at day 0 using a TNBS-enema (4 mg TNBS, 50% ethanol). […] Control animals received 0.25 ml 0.9% NaCl intrarectally. The animals were kept in a tail-up position during 1 min and were then allowed to recover in a Trendelenburg position.
Electromyographic (EMG) electrodes were implanted into the external abdominal muscle and 3 days later, the VMR experiment was performed in conscious rats. A lubricated balloon (length 5 cm) was introduced into the colorectum of the animal and connected to a barostat (Distender Series II Barostat, G&J Electronics, Canada). The EMG electrodes were attached to a data-acquisition system and a phasic distension protocol (10-20-30-40-60 mmHg, 20 s, 4 min interval) was sent through the barostat. […] The VMR was quantified using the area under the curve (AUC) of the EMG signal during the distension (20 s) corrected for the EMG signal before the distension (20 s).
22.0. The results of the VMR experiments analyzed using a Generalized Estimating Equations (GEE) test with Least Significant Difference (LSD) post-hoc test. A p-value<0.05 was considered as being statistically significant. The graphs were made with GraphPad Prism 6.0.
Visceral sensitivity was assessed using the visceromotor responses (VMRs) to a colorectal distension, shown in the graphs below as area under the curve (AUC; y-axis; μV.20 s-1) for each distension pressure (x-axis; mmHg). Serine proteases seem to play an important role in the pathogenesis of visceral pain.

A further series has as its target KLK2 (Homo sapiens, UniProt P20151). As to the kind of experiment: in vitro serine protease inhibition profile: KLK2. The format is biochemical.
In a further series the target is KLK4 (Homo sapiens, UniProt Q9Y5K2). In words: in vitro serine protease inhibition profile: KLK4. The format is biochemical.
Chain of KLK4 (Q9Y5K2 31-254, species assumed): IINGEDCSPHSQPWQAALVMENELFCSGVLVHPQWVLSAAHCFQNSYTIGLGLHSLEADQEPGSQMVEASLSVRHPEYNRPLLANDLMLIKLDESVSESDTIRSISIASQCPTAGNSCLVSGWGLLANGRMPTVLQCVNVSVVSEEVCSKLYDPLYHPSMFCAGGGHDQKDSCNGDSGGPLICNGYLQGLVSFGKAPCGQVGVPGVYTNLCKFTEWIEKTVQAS
Another series addresses T2, HNE (Homo sapiens, UniProt P08246).
T2 sequence (P08246 30-267): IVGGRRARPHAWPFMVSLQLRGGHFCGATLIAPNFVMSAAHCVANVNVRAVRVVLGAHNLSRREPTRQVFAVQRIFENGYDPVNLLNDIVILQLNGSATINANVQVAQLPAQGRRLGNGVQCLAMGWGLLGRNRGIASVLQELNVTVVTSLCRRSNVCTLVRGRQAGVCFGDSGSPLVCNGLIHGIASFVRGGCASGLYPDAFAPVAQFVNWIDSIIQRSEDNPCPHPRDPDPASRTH
As to the kind of experiment: in vitro serine protease inhibition profile: HNE. The format is biochemical.

The target of the next series is tryptase (Homo sapiens, UniProt Q15661). As to the kind of experiment: in vitro serine protease inhibition profile: tryptase. It counts as biochemical.
Chain of tryptase (Q15661 31-275): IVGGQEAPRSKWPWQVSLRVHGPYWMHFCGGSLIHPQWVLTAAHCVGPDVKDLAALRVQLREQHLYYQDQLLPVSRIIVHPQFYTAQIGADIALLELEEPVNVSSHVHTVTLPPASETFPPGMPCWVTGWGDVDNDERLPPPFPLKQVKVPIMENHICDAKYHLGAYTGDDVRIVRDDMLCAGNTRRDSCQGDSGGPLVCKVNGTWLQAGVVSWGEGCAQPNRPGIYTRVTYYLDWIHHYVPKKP
The next series addresses T3, plasmin (Homo sapiens, UniProt P00747).
T3 construct: panel of serine proteases: uPA, tPA, thrombin, plasmin, FXIIa
As to the kind of experiment: in vitro serine protease inhibition profile: plasmin. It counts as biochemical.

Another series concerns the target T4, cathepsinG (Homo sapiens, UniProt P08311).
T4 sequence (P08311 21-244): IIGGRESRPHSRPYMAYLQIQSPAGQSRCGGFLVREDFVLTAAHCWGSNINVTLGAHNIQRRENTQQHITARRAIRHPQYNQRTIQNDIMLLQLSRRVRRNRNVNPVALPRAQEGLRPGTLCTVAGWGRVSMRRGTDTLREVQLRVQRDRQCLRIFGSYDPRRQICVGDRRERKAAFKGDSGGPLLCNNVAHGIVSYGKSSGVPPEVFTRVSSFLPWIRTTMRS
As to the kind of experiment: in vitro serine protease inhibition profile: cathepsinG. The format is biochemical.

For the next series, the target named is KLK1 (Homo sapiens, UniProt P06870). In words: in vitro serine protease inhibition profile: KLK1. The format is biochemical.
Chain of KLK1 (P06870 25-262, species assumed): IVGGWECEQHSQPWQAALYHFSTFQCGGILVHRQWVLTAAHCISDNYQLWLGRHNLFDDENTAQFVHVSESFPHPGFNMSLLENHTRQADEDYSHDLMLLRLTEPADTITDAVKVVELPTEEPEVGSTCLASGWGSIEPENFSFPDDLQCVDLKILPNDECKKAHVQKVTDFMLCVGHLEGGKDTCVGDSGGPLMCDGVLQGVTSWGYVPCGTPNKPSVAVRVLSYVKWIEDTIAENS
The target in a further series is uPA (Homo sapiens, UniProt P00749). As to the kind of experiment: in vitro serine protease inhibition profile: uPA. It counts as biochemical.
The next series concerns the target T5, FXIIa (Homo sapiens, UniProt P00748).
T5 construct: panel of serine proteases: uPA, tPA, thrombin, plasmin, FXIIa
In words: in vitro serine protease inhibition profile: FXIIa. It counts as biochemical.

Where [1] appears, read: 1 mg/kg i.p., single administration.

Chain of KLK2 (P20151 25-261, species assumed): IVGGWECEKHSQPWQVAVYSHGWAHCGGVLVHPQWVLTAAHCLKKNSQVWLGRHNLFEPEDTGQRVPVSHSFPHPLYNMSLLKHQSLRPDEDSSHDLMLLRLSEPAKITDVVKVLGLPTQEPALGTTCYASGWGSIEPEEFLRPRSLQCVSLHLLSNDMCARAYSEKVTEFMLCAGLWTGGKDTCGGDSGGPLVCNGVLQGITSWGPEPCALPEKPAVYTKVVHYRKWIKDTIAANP
T3 sequence (P00747 581-810 limits assumed, species assumed): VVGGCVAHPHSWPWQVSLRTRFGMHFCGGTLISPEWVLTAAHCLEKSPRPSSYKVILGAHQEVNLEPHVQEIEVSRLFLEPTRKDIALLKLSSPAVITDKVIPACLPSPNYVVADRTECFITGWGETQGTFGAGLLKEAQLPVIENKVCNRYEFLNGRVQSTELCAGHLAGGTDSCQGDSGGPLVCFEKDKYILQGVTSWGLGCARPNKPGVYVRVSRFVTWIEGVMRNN
T3 sequence (P00747 97-580 partner limits assumed, species assumed): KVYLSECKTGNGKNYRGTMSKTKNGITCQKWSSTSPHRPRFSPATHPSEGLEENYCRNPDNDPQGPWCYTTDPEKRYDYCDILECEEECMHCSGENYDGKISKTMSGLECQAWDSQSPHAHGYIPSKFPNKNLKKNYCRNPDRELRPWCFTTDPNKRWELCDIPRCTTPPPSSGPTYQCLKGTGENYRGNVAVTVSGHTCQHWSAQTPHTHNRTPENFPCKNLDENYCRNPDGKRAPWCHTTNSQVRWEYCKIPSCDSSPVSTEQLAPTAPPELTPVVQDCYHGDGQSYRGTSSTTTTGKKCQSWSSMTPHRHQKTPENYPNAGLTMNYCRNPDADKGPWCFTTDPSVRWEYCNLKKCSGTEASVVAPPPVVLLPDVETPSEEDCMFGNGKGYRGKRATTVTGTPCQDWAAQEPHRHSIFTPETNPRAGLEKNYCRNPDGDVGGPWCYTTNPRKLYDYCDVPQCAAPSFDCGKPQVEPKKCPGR
T5 sequence (P00748 373-615 limits assumed, other chains not shown): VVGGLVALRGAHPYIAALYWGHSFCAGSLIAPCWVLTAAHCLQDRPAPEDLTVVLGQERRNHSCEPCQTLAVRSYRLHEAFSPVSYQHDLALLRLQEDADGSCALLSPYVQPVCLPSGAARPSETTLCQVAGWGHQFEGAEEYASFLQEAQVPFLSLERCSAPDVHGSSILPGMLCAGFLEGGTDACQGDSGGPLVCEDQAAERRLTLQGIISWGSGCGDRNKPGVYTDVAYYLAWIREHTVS

What is called IC50 is the concentration that inhibits the measured activity by half. A low value points to higher potency. Regarding `COC(=O)NC(Cc1ccc(NC(=N)N)cc1)P(=O)(Oc1ccccc1)Oc1ccccc1` (centres unmarked) [Compound 1], the IC50 against KLK8 is 28 nM; on KLK2, over 2500 nM; against KLK4, 9 nM; against HNE, over 2500 nM; on tryptase, 93 nM; against plasmin, over 2500 nM. Further, the IC50 against cathepsinG is 329 nM; against KLK1 it was over 2500 nM; against uPA it was 4 nM; on FXIIa, over 2500 nM. Moreover, the figures for the “effect on VMRs (visceral pain)” value in the series with post-colitis rats (setting [1]) and with post-colitis rats (2.5 mg/kg i.p.) were “no clear reduction of the VMRs was seen” and “visceral pain had completely disappeared”, respectively. In addition, in the series with post-colitis rats, the “effective dose in visceral pain model” value is “at least 2.5 mg/kg”. For the same compound, in the series with post-colitis rats (rats, 5 mg/kg), the side effect observed result is listed as “sedation was observed”.

On to `CC(=O)Nc1ccc(OP(=O)(Oc2ccc(NC(C)=O)cc2)C(Cc2ccc(NC(=N)N)cc2)NC(=O)OCc2ccccc2)cc1` (centres unmarked) [Compound 4], for which the IC50 is 2 nM on KLK8; 115 nM against KLK2; 2 nM at KLK4; over 2500 nM on HNE; 5 nM against tryptase; over 2500 nM against plasmin. The IC50 was 120 nM against cathepsinG, over 2500 nM against KLK1, 2 nM on uPA and 1610 nM against FXIIa. Also, the “effect on visceral sensitivity” value with post-colitis rats (control rats, 1 mg/kg i.p.) was “no significant effect on visceral sensitivity”. The “effect on VMRs (visceral pain)” value in the series with post-colitis rats (0.01 mg/kg i.p., single administration 30 min before VMR) was “no significant effect”; in the series with post-colitis rats (0.1 mg/kg i.p., single administration), “significantly lowered VMRs”; in the series with post-colitis rats (setting [1]) it was “visceral pain had completely disappeared”. Also, the “effective dose in visceral pain model” value in the series on post-colitis rats worked out at 0.1 mg/kg.

These data come from patent publication US11638712B2, “Bis(acetamidophenyl) guanidinophenylethylphosphonates for use in the prevention and/or treatment of PAR-related diseases” (Universiteit Antwerpen, priority 2016, dated 2023).
